The conditions of assay [1]: human, in vivo; cited from earlier work.
Assay [2] deals with SARS-CoV-2 Beta variant. The experiment in a line: Virucidal assay. Particulars: virus pretreated with 10 μM, compared with untreated and post-treated controls.

With `CCc1nc(C(N)=O)c(Nc2ccc(N3CCC(N4CCN(C)CC4)CC3)c(OC)c2)nc1NC1CCOCC1` [Gilteritinib, gilteritinib], the clinical outcome in assay [1] is “successful remission”. Also, the “virucidal effect on virus viability” value in assay [2] is “did not greatly reduce viability”.
